Ends that are not written are not given here.
system: homologous piliated Escherichia coli challenge strains (renal and/or bladder colonization); test: Intravesicular BALB/c experimental model of pyelonephritis and cystitis, pilin A synthetic peptide conjugate vaccines; type: in vivo; conditions: BALB/c mice, thyroglobulin and BSA conjugates ~200 ug i.m. day 0 and 14 in incomplete Freund's adjuvant; bladder inoculation 10^8 CFU homologous piliated strain; renal/bladder colonization at 48 hours; protection = >90% of cohort no growth and none >500 CFU per 0.1 gram
Procedure: The intravesicular BALB/c experimental model of pyelonephritis and cystitis, as originally described by O'Hanley, was employed to evaluate the protective capacity of structural pilin synthetic peptide conjugate vaccines to prevent subsequent renal and/or bladder colonization by homologous piliated strains at 48 hours after bacterial bladder inoculation. Cohorts of 20 mice per group were vaccinated via intramuscular administration on two occasions with the experimental thyroglobulin and bovine serum albumin conjugate pilin A vaccines (i.e., day 0 and day 14). Each intramuscular dose of experimental vaccine consisted of ^˜200 ug in 100 ul saline emulsified in 100 ul incomplete Freund's adjuvant. Control vaccines consisted of thyroglobulin and bovine serum albumin emulsified in saline and incomplete Freund's adjuvant. These control vaccines were administered in similar fashion and schedule as the experimental vaccines. Challenge for pilin A vaccinated mice entailed bladder inoculation of 10^8 CFU of an Escherichia coli strain that expressed homologous pili. In contrast, the cohort size for control animals was 5 per challenge strain. The table below summarizes the challenge strategy.
Protection against subsequent renal colonization and bladder colonization by the challenge strain was defined by >90% of the experimental animals in a cohort (i.e., 18 of 20 vaccinated experimental mice) having no bacterial growth from aliquots of homogenized whole right kidney and aliquots of homogenized whole bladders and none of the experimental animals having heavy bacterial growth from the challenge strain in renal or bladder specimens (viz., the absence of ++++ colonization density or >500 CFU of the challenge strain per 0.1 gram of renal or bladder tissue) compared to heavy growth of the challenge strain in both renal and bladder specimens (++++ colonization density or >500 CFU per 0.1 gm of renal or bladder tissue) by the challenge strain in >80% of control animals (i.e. >4 of 5 control mice).

Sequence | Homologous Protection
PQGQGKVT (also: conjugated to carrier protein) [F72 and F13 pilin A synthetic peptide conjugate vaccine] | Yes
NFKQLQGGAAKKG (also: conjugated to thyroglobulin or BSA) [F71 pilin A synthetic peptide conjugated to thyroglobulin or bovine serum albumin] | Yes
TTVTVNGGTVHF (also: conjugated to thyroglobulin or BSA) [F1 structural pilin synthetic peptide conjugated to thyroglobulin or bovine serum albumin] | Yes
TTVNGGTVH (also: conjugated to carrier protein) [F9 pilin A synthetic peptide conjugate vaccine] | Yes
IPQGQGKVTFNGTV (also: conjugated to carrier protein) [F11 pilin A synthetic peptide conjugate vaccine] | Yes
IPEGQGKVT (also: conjugated to thyroglobulin or BSA) [F12 pilin A synthetic peptide conjugated to thyroglobulin or bovine serum albumin] | Yes
PQGQGEVT (also: conjugated to thyroglobulin or BSA) [F71 pilin A synthetic peptide conjugated to thyroglobulin or bovine serum albumin] | Yes
NGGTVHFKGEVVN (also: conjugated to thyroglobulin or BSA) [F1C structural pilin synthetic peptide conjugated to thyroglobulin or bovine serum albumin] | Yes
NFKKAATPGGAAKT (also: conjugated to thyroglobulin or BSA) [F9 pilin A synthetic peptide conjugated to thyroglobulin or bovine serum albumin] | Yes
PQGQGEVA (also: conjugated to thyroglobulin or BSA) [F71 pilin A synthetic peptide conjugated to thyroglobulin or bovine serum albumin] | Yes
NFKKAAGGGGAKT (also: conjugated to thyroglobulin or BSA) [F72 pilin A synthetic peptide conjugated to thyroglobulin or bovine serum albumin] | Yes

system: experimental pyelonephritis; test: BALB/c murine model of experimental pyelonephritis, F13 peptide conjugate vaccines; type: in vivo; conditions: BALB/c mice, serial parenteral administration of vaccine, intravesicular challenge

Sequence | protection in experimental pyelonephritis
PQGQGKVT (also: conjugated to carrier protein) [F72 and F13 pilin A synthetic peptide conjugate vaccine] | protective
AKFGGMGAKKG (also: conjugated to carrier protein) [F13 structural pilin peptide conjugate vaccine] | protective

From patent US20020142008A1, “Immunogenic pili presenting foreign peptides, their production and use” (priority 2000, published 2002)
